Structures are written as SMILES.

Assay [1] deals with MDA-MB-231. The assay is described as follows: drug sensitivity score (DSS), cell viability CellTiter-Glo; higher = more sensitive; extreme values may be limits of the assay. The conditions noted are these: 72 h. For orientation: Cellular ATP, detected with luciferase, serves as a proxy for viable cell number.
The test system of assay [2] is MDA-MB-231. The assay is described as follows: drug sensitivity score (DSS), cytotoxicity CellTox Green; higher = more cytotoxic; extreme values may be limits of the assay. As to conditions: 72 h.
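Wherever drug sensitivity score (DSS), cytotoxicity CellTox Green is given: DSS summarises each dose–response curve by combining IC50, EC50, maximal inhibition and efficacy across drug concentrations.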

On to `CCN(CC)CCOc1ccc(C(=C(Cl)c2ccccc2)c2ccccc2)cc1` [Clomifene], for which the drug sensitivity score in the assay with MDA-MB-231 [1] (shRNA: shPPFIA1_1) stood at 3.7 DSS; with MDA-MB-231 [1] (shRNA: shScramble), 5.1 DSS; in the assay on MDA-MB-231 [2] (shRNA: shPPFIA1_1) it was 7.9 DSS; in the assay on MDA-MB-231 [2] (shRNA: shScramble) it was 6.1 DSS.
For `O=C(c1ccc(F)c(F)c1Nc1ccc(I)cc1F)N1CC(O)([C@@H]2CCCCN2)C1` [Cobimetinib] the same measures were 1.6 DSS, 12.8 DSS, 4.4 DSS and 12 DSS.
The matching figures for `COc1c(OCCCN2CCOCC2)ccc2c1N=C(NC(=O)c1cnc(N)nc1)N1CCN=C21` [Copanlisib]: 0 DSS, 6.3 DSS, 10.2 DSS and 0 DSS.
As for `CC1(COc2ccc3c(c2)ncn3-c2ccc3cccc(N4CCC(N)CC4)c3n2)COC1` [Crenolanib], the drug sensitivity score in the assay with MDA-MB-231 [1] (shRNA: shPPFIA1_1) came out at 5.3 DSS; with MDA-MB-231 [1] (shRNA: shScramble), 9.4 DSS; with MDA-MB-231 [2] (shRNA: shPPFIA1_1), 7.2 DSS; in the assay with MDA-MB-231 [2] (shRNA: shScramble), 4.6 DSS.
As for `C[C@@H](Oc1cc(-c2cnn(C3CCNCC3)c2)cnc1N)c1c(Cl)ccc(F)c1Cl` [Crizotinib], the drug sensitivity score in the assay on MDA-MB-231 [1] (shRNA: shPPFIA1_1) came out at 0.1 DSS; in the assay on MDA-MB-231 [1] (shRNA: shScramble), 0 DSS; in the assay on MDA-MB-231 [2] (shRNA: shPPFIA1_1) it was 0 DSS; in the assay with MDA-MB-231 [2] (shRNA: shScramble), 0 DSS.
For the molecule `O=P1(N(CCCl)CCCl)NCCCO1` (stereo not given) [Cyclophosphamide], the drug sensitivity score in the assay with MDA-MB-231 [1] (shRNA: shPPFIA1_1), in the assay with MDA-MB-231 [1] (shRNA: shScramble), with MDA-MB-231 [2] (shRNA: shPPFIA1_1) and in the assay with MDA-MB-231 [2] (shRNA: shScramble) was 0 DSS throughout.
For `Nc1ccn([C@@H]2O[C@H](CO)[C@@H](O)[C@@H]2O)c(=O)n1` [Cytarabine], the drug sensitivity score in the assay on MDA-MB-231 [1] (shRNA: shPPFIA1_1) was determined as 0 DSS; with MDA-MB-231 [1] (shRNA: shScramble), 1.6 DSS; with MDA-MB-231 [2] (shRNA: shPPFIA1_1), 0 DSS; in the assay with MDA-MB-231 [2] (shRNA: shScramble), 0 DSS.
For the molecule `CC(C)(C)c1nc(-c2cccc(NS(=O)(=O)c3c(F)cccc3F)c2F)c(-c2ccnc(N)n2)s1` [Dabrafenib], the drug sensitivity score in the assay on MDA-MB-231 [1] (shRNA: shPPFIA1_1) stood at 0 DSS; in the assay with MDA-MB-231 [1] (shRNA: shScramble) it was 0 DSS; in the assay with MDA-MB-231 [2] (shRNA: shPPFIA1_1), 0.9 DSS; with MDA-MB-231 [2] (shRNA: shScramble), 0.9 DSS.
With `CN(C)/N=N/c1[nH]cnc1C(N)=O` [Dacarbazine], the drug sensitivity score in the assay with MDA-MB-231 [1] (shRNA: shPPFIA1_1), in the assay on MDA-MB-231 [1] (shRNA: shScramble), in the assay with MDA-MB-231 [2] (shRNA: shPPFIA1_1) and in the assay with MDA-MB-231 [2] (shRNA: shScramble) was 0 DSS each time.
Take `COc1cc2ncnc(Nc3ccc(F)c(Cl)c3)c2cc1NC(=O)/C=C/CN1CCCCC1` [Dacomitinib]: the drug sensitivity score in the assay on MDA-MB-231 [1] (shRNA: shPPFIA1_1) was determined as 0.9 DSS; in the assay with MDA-MB-231 [1] (shRNA: shScramble), 0 DSS; in the assay with MDA-MB-231 [2] (shRNA: shPPFIA1_1) it was 0 DSS; with MDA-MB-231 [2] (shRNA: shScramble), 4.7 DSS.
With `Cc1c2oc3c(C)ccc(C(=O)N[C@@H]4C(=O)N[C@H](C(C)C)C(=O)N5CCC[C@H]5C(=O)N(C)CC(=O)N(C)[C@@H](C(C)C)C(=O)O[C@@H]4C)c3nc-2c(C(=O)N[C@@H]2C(=O)N[C@H](C(C)C)C(=O)N3CCC[C@H]3C(=O)N(C)CC(=O)N(C)[C@@H](C(C)C)C(=O)O[C@@H]2C)c(N)c1=O` [Dactinomycin], the drug sensitivity score in the assay with MDA-MB-231 [1] (shRNA: shPPFIA1_1) stood at 14.1 DSS; in the assay on MDA-MB-231 [1] (shRNA: shScramble) it was 25.9 DSS; in the assay on MDA-MB-231 [2] (shRNA: shPPFIA1_1), 14.9 DSS; in the assay with MDA-MB-231 [2] (shRNA: shScramble) it was 12.4 DSS.
The matching figures for `CO[C@@H](C(=O)N1Cc2[nH]nc(NC(=O)c3ccc(N4CCN(C)CC4)cc3)c2C1)c1ccccc1` [Danusertib]: 0 DSS, 0 DSS, 0 DSS and 0.2 DSS.
The matching figures for `O=C(/C=C/c1cccnc1)NCCCCC1CCN(C(=O)c2ccccc2)CC1` [Daporinad]: 24.6 DSS, 26.8 DSS, 0 DSS and 0 DSS.
The matching figures for `CCN(CC)CCN(Cc1ccc(-c2ccc(C(F)(F)F)cc2)cc1)C(=O)Cn1c(SCc2ccc(F)cc2)nc(=O)c2c1CCC2` [Darapladib]: 0 DSS, 0 DSS, 13.1 DSS and 0 DSS.
Consider `Cc1nc(Nc2ncc(C(=O)Nc3c(C)cccc3Cl)s2)cc(N2CCN(CCO)CC2)n1` [Dasatinib], for which the drug sensitivity score with MDA-MB-231 [1] (shRNA: shPPFIA1_1) amounted to 0 DSS; in the assay with MDA-MB-231 [1] (shRNA: shScramble) it was 9.3 DSS; with MDA-MB-231 [2] (shRNA: shPPFIA1_1), 0 DSS; in the assay with MDA-MB-231 [2] (shRNA: shScramble) it was 0 DSS.
